Assays:
hsp-6p::GFP [1] = test: Mitochondrial stress (UPRmt) hsp-6p::GFP induction in dld-1 RNAi worms; assay type: in vivo, C. elegans; settings: for HSP-6P::GFP: dld-1 RNAi worms, conc.: Nicotinic Acid 1 mM, Riboflavin 10 uM, Thiamine 25 mM, L-Carnitine 100 uM, Folinic Acid 10 uM, Glucose 10 uM, DCA 25 mM, Cysteamine 100 um, NAC 2.5 Mm, AICAR 500 uM, Hydralazine 200 uM, Lithium Chloride 10 mM, Cyclohexamide 2 uM, Arginine 10 mM, Taurine 800 uM, Resveratrol 50 uM, Rapamycin 2.5 nM, Probucol 5 uM, Lipoic Acid 10 uM, Vitamin E 250 uM
Method: (§1) Brood size analysis—Worms were synchronized by picking ten to fifteen N2 gravid adult worms onto NGM plates containing 0.2 mM IPTG, ampicillin and tetracycline spread with DLD-1 (LLCI.3) or L4440 bacteria and allowed to lay eggs for 2-2.5 hours. A single L4 larvae from the egg lay was placed on a 4 mm dish containing NGM and corresponding RNAi clone and allowed to lay eggs for 24 hours before being transferred to a fresh 4 mm NGM plate. Worms were transferred to fresh plates for 5 days and progeny were counted from each plate. Western blot analysis—Approximately 500 young adult worms were briefly washed with S. basal media before resuspension in 250 uL of RIPA buffer (50 mM Tris HCl, pH 8.0, 150 mM NaCl, 1.0% NP-40, 0.5% sodium deoxycholate, 1.0 mM EDTA, 0.1% SDS) containing a 1/100 dilution of Protease inhibitor cocktail (Sigma). Worms were lysed using a mechanical hand homogenizer and pestle on ice and the resulting lysate was maintained at constant agitation for 30 minutes at 4° C. Lysate was subsequently centrifuged for 20 minutes at 16,000 rpm and the supernatant was removed. Protein concentration was determined using the Pierce BCA protein assay kit. 30 ug of whole cell lysate was utilized and blots were probed with anti-LAD monoclonal antibody at a 1:7500 dilution (abcam) to detect the DLD-1 protein. As a loading control blots were additionally probed with anti-Beta tubulin (source) at a […]. Chemotaxis Assay—Chemotaxis analysis was performed as has been previously described (Haroon, S. J. of Cell Reports (2018); pmid:29562168). In brief, approximately 30 worms were collected and washed with S. basal media. Worms were placed 5 cm away from a spot containing 2 uL of 10% isoamyl alcohol dissolved in 100% ethanol and 1 uL of 10% sodium azide. After one hour distance traveled by each worm was marked and analyzed via image J. Length Analysis—A synchronized population of worms grown on L4440 and LLCI.3 RNAi clones were monitored from the L4 stage of development till day 5 of adulthood. On the day of length analysis […] Quantification of Hsp6::GFP induction—A synchronized egg lay using 15-20 Hsp6::GFP gravid young adult worms on L4440 or LLCI.3 RNAi clones was performed to induce depletion of DLD-1 protein. Day 1 young adult worms were washed once in 4-5 mL of S. basal in a 50 mL conical tube and pelleted by centrifugation at 1300×g for 1 minute. Spent S. basal was removed and worms were resuspended in a final volume of 10 mL in preparation for biosorter analysis. An excitation wavelength of 488 nm and emission filter of 510 nm was utilized to measure induction of Hsp6::GFP induction in individual worms. Experiments were conducted with approximately 300 worms per sample with three biological replicates for each condition tested.
(§2) DLD depletion in C. elegans was achieved by feeding wild-type (N2 Bristol) worms E. coli expressing a dsRNA targeting DLD-1 messenger RNA. Brood size, survival, activity, growth (length), DLD-1 expression, and mitochondrial unfolded protein response (UPR^mt) were quantified in the resulting DLD-1^−/− animals. High throughput semi-automated analyses of animal growth (length) and mitochondrial stress response (UPR^mt) were also measured in day 1 adult worm populations using the COPAS Biosorter (Union Biometrica).
(§3) Therapeutic impact on DLD-1^−/− C. elegans UPR^mt induction and growth (length), as well as DLDH−/− zebrafish survival, liver morphology, and swimming behavior were tested for 5 therapies, including a PDH activator (dichloroacetate, DCA), PDH cofactors (thiamine, riboflavin, lipoic acid), and a lipid lowering drug that functions as a signaling modifier to inhibit mTORCI and activate AMPK and PPAR (probucol).

[2] = test system: DLD-1 deficient (did-1 RNAi) C. elegans; test: Animal size (length) of DLD-1 deficient (dld-1 RNAi) worms, COPAS Biosorter; assay type: in vivo; settings: for Size: dld-1 RNAi worms, conc.: Nicotinic Acid 1 mM, Riboflavin 10 uM, Thiamine 25 mM, L-Carnitine 100 uM, Folinic Acid 10 uM, Glucose 10 uM, DCA 25 mM, Cysteamine 100 um, NAC 2.5 Mm, AICAR 500 uM, Hydralazine 200 uM, Lithium Chloride 10 mM, Cyclohexamide 2 uM, Arginine 10 mM, Taurine 800 uM, Resveratrol 50 uM, Rapamycin 2.5 nM, Probucol 5 uM, Lipoic Acid 10 uM, Vitamin E 250 uM
Method: RNAi feeding—DLD-1 RNAi clone (LLC1.3) was obtained from the Ahringer RNAi collection and was sequence confirmed prior to use. The vector L4440 was utilized as a control.
as §1, §2, §3

gas-1(fc21) C. elegans = test: Lifespan of gas-1(fc21) Complex I NDUFS2 mutant worms; assay type: in vivo; settings: administered at development (L1); previous studies in applicant's lab
SURF1-del1−/− zebrafish = test: SURF1 knockout zebrafish pre-treatment before NaN3 exposure: brain death, startle response; assay type: in vivo; settings: FIG. 36D
Text: The phenotypes assessed can include without limitation, swimming activity or swimming fatigue, organ structural impairment or dysfunction gray brain alterations in mitochondrial physiology (=brain death) (FIG. 36C), heart rate, startle (tap) response (stimulus on plate), and touch response (stimulus on animal).
hsp-6p::GFP [3] = test: UPRmt in K09A9.5 (gas-1) knockdown hsp-6p::gfp reporter worms; assay type: in vivo, C. elegans; settings: 10 mM Glu, 2.5 mM NAC, 1 mM Nicotinic acid
Method: UPRmt in C. elegans is assessed using a GFP reporter for hsp-6.

gas-1(fc21) worms = test: Mitochondrial physiology (TMRE, MitoSOX, MitoTracker Green) in gas-1(fc21) worms; assay type: in vivo, C. elegans; settings: 24 hour treatment
Method: Mitochondrial oxidant burden (MitoSOX Red), membrane potential (tetramethylrhodamine ethyl ester, TMRE), and mitochondrial content (MitoTracker Green FM, MTG) were performed in C. elegans at 20° C. using in vivo terminal pharyngeal bulb relative fluorescence microscopic quantitation. […] Simultaneously with the drug treatments, worms were treated with either 10 μM MitoSOX Red (matrix oxidant burden), 100 nM TMRE (mitochondrial membrane potential), or 2 μM MitoTracker Green FM (mitochondria content) for 24 h. The next day, worms were transferred with a pick onto 35 mm agar plates spread with OP50 E. coli without dye for 1 h to allow clearing of residual dye from the gut. Worms were then paralyzed in situ with 5 mg/ml levamisole. Photographs were taken in a darkened room at 160× magnification with a Cool Snap cf2 camera (Nikon, Melville, N.Y.). A CY3 fluorescence cube set (MZFLIII, Leica, Bannockburn, IL) was used for MitoSOX and TMRE. […] Fluorescence data for each strain were normalized to its same day control to account for day-to-day variation. […] The significance of the difference in the mean fluorescence intensity between strains under different experimental conditions was assessed by mixed-effect ANOVA, which analyzes potential batch effect due to samples being experimentally prepared, processed, and analyzed on different days by including a batch random effect in the model. […]

dldh−/− zebrafish = test: dldh-/- zebrafish larvae: liver size and survival; assay type: in vivo; settings: treatment from 2 dpf; 10 μM lipoic acid, 5 μM Probucol; 8 dpf
Method: FIGS. 20A-20B: Treatment of zebrafish larvae from 2 dpf with 10 μM lipoic acid and 5 μM Probucol. (FIG. 20A) Images were taken of larvae at 8 dpf and liver area was measured using Image J. P<0.05. (FIG. 20B) Survival analysis. Death was defined by absence of heartbeat.
C. elegans dld-1+/− heterozygous mutant worms display hallmarks of mitochondrial dysfunction such as decreased lifespan and activity. (FIGS. 12A, 12B), although this is likely attributed to their balancer chromosomal mutation (unc) since homozygosity for DLD knockout is lethal in C. elegans. While we have employed a previously identified C. elegans mutant, RNAi can also be employed to characterize variable to complete gene knockout mutants. DLDH deletion zebrafish mutants lacking a portion of exon 1 were generated using CRISPR/Cas9 gene editing via microinjection at the 1-cell stage. (FIG. 13). Animal viability, organ development, swim behavior, DLD-1 protein expression, and electron transport chain enzyme activity analyses were evaluated in DLDH mutant relative to AB (wild-type) zebrafish. Liver physiology was studied by Oil Red 0 staining and transmission electron microscopy. […] Control and dldh CRISPR injected Zebrafish Larvae lateral viewed at 1.6× magnification are shown in FIG. 14A. dldh−/− larvae show swollen liver and deflated swim bladder compared to wild-type controls at 8 dpf. FIG. 14B. Survival analysis comparing control and dldh−/− zebrafish, N=30 larvae for each group. Death was defined by absence of a heartbeat. FIGS. 14C and 14D show protection from rotenone induced Complex I dysfunction using the three component composition comprising NAC, NA and glucose.
as §3

[4] = adults; cited from earlier work

| Compound | HSP-6P::GFP (hsp-6p::GFP [1]) | Size [2] | other results |
| --- | --- | --- | --- |
| Cc1ncc(C[n+]2csc(CCO)c2C)c(N)n1 [Thiamine] | Decrease | Increase | reduction of UPRmt (HSP6::GFP fluorescence) relative to untreated DLD-1−/− worms (hsp-6p::GFP [1]; treatment from early development, 25 mM DCA, 25 mM Thiamine, adult day 1): 18%; increase in worm growth (length) ([2]; DLD-1 RNAi worms treated from birth, 50 μM Riboflavin, 25 mM Thiamine, adult day 1): 16% |
| N=C(N)NCCC[C@H](N)C(=O)O [Arginine] | Increase | No Effect | – |
| NCCS [Cysteamine] | No Effect | No Effect | – |
| NCCS(=O)(=O)O [Taurine] | Decrease | Increase | – |
| NNc1nncc2ccccc12 [Hydralazine] | No Effect | – | – |
| O=C(O)c1cccnc1 [Nicotinic Acid, Nicotinic acid] | No Effect | No Effect | rescue of short lifespan of gas-1(fc21) to wild type N2 levels by individual compounds (gas-1(fc21) C. elegans): partially or fully rescue; effect on sodium azide treated (stressor) brains of surf1 KO zebrafish (SURF1-del1−/− zebrafish): protective effects; UPRmt stress response (hsp-6p::gfp fluorescence) (hsp-6p::GFP [3]): no effect; effect on mitochondrial oxidant burden (gas-1(fc21) worms): significantly reduces |
| Nc1nc(=O)c2c([nH]1)NCC(CNc1ccc(C(=O)N[C@@H](CCC(=O)O)C(=O)O)cc1)N2C=O (mixture of isomers) [Folinic Acid] | Increase | No Effect | – |
| CC(C)(Sc1cc(C(C)(C)C)c(O)c(C(C)(C)C)c1)Sc1cc(C(C)(C)C)c(O)c(C(C)(C)C)c1 [Probucol] | No Effect | No Effect | decrease in liver size / liver disease compared to untreated DLDH−/− larvae (dldh−/− zebrafish): 49% |
| C[N+](C)(C)C[C@H](O)CC(=O)[O-] [L-Carnitine] | No Effect | No Effect | – |
| [Cl-].[Li+] [Lithium Chloride] | Decrease | No Effect | – |
| NC(=O)c1cccnc1 [Nicotinamide] | – | – | dose that may be toxic to the liver [4]: exceeding 3 g/day |

Reference: patent US12011452B2, “Compositions and methods for treatment of mitochondrial respiratory chain dysfunction and other mitochondrial disorders” (The Children's Hospital of Philadelphia, priority 2018, dated 2024)
